Two molecules from patent publication US20240216413A1, “THIONUCLEOSIDES AS ANTIVIRAL AGENTS” (priority 2021, published 2024) can be followed below.

Holding throughout (type): cell-based
For test [1], the system named is SARS-CoV-2 Lineage A (Eng). The test is described as follows: Antiviral activity against SARS-CoV-2 Lineage A (Eng) in Vero. Conditions: for EC50: read-out: Antiviral Activity Against SARS-CoV-2 Variants in Vero EC50, Lineage A (Eng); for EC90: read-out: Antiviral Activity Against SARS-CoV-2 Variants in Vero EC90, Lineage A (Eng).
In test [2] the test system is SARS-CoV-2 variant Gamma. The test is described as follows: microbe, parasite or virus in culture. Conditions: for EC50: read-out: Antiviral Activity Against SARS-CoV-2 Variants in Vero EC50, Gamma; for EC90: read-out: Antiviral Activity Against SARS-CoV-2 Variants in Vero EC90, Gamma.
Test [3] deals with SARS-CoV-2 variant Beta. The test is described as follows: microbe, parasite or virus in culture. Conditions: Severe acute respiratory syndrome coronavirus 2, Calu-3, read-out: Antiviral Activity Against SARS-CoV-2 Variants in Calu3 EC50, Beta.
The next test deals with SARS-CoV-2 variant Delta. The test is described as follows: microbe, parasite or virus in culture.
Test [4] deals with SARS-CoV-2 Lineage A (Wa). The test is described as follows: Antiviral activity against SARS-CoV-2 Lineage A (Wa) in Vero. Conditions: read-out: Antiviral Activity Against SARS-CoV-2 Variants in Vero EC50, Lineage A (Wa).
Test [5] deals with SARS-CoV-2 Lineage A (Eng). The test is described as follows: Antiviral activity against SARS-CoV-2 Lineage A (Eng) in Calu3.
The subject of test [6] is SARS-CoV-2 variant Beta. The test is described as follows: microbe, parasite or virus in culture. To be noted: for EC50: read-out: Antiviral Activity Against SARS-CoV-2 Variants in Vero EC50, Beta; for EC90: read-out: Antiviral Activity Against SARS-CoV-2 Variants in Vero EC90, Beta.
Test [7] has as its system SARS-CoV-2 variant Gamma. The test is described as follows: microbe, parasite or virus in culture.
The test system of test [8] is SARS-CoV-2 Lineage A (Wa). The test is described as follows: Antiviral activity against SARS-CoV-2 Lineage A (Wa) in Calu3.
Test [9] has as its system SARS-CoV-2 variant Alpha. The test is described as follows: microbe, parasite or virus in culture. To be noted: for EC50: read-out: Antiviral Activity Against SARS-CoV-2 Variants in Vero EC50, Alpha; for EC90: read-out: Antiviral Activity Against SARS-CoV-2 Variants in Vero EC90, Alpha.
Test [10] relates to SARS-CoV-2 variant Alpha. The test is described as follows: microbe, parasite or virus in culture.
Setting [11] is: Severe acute respiratory syndrome coronavirus 2, Vero.
Where [12] appears, read: Severe acute respiratory syndrome coronavirus 2, Lineage A (Eng), Vero.
The mark [13] stands for this setting: Severe acute respiratory syndrome coronavirus 2, Gamma, Vero.
Setting [14] is: Severe acute respiratory syndrome coronavirus 2, Beta, Vero.
Setting [15] is: Severe acute respiratory syndrome coronavirus 2, Alpha, Vero.

Read-outs that look alike come from different tables or passages of the source.

Consider `O=c1ccn([C@@H]2S[C@H](CO)[C@@H](O)[C@H]2O)c(=O)[nH]1` [Compound 8, 1-((2R,3R,4S,5R)-3,4-dihydroxy-5-(hydroxymethyl)tetrahydrothiophen-2-yl)pyrimidine-2,4(1H,3H)-dione], for which the EC50 in test [1] (setting [11]) was determined as 200 nM; with SARS-CoV-2 variant Gamma [2] (setting [11]), 200 nM; in the test on SARS-CoV-2 variant Beta [3] it was 1100 nM; in the test on SARS-CoV-2 variant Delta (Severe acute respiratory syndrome coronavirus 2, Calu-3, read-out: Antiviral Activity Against SARS-CoV-2 Variants in Calu3 EC50, Delta), 1800 nM; in [4] (setting [11]), 800 nM; with SARS-CoV-2 variant Beta [6] (setting [11]), 800 nM. Further, the EC50 in the test with SARS-CoV-2 variant Gamma [7] (Severe acute respiratory syndrome coronavirus 2, Calu-3, read-out: Antiviral Activity Against SARS-CoV-2 Variants in Calu3 EC50, Gamma) was found to be 40 nM; in [8] (Severe acute respiratory syndrome coronavirus 2, Calu-3, read-out: Antiviral Activity Against SARS-CoV-2 Variants in Calu3 EC50, Lineage A (Wa)), 100 nM; in the test with SARS-CoV-2 variant Alpha [9] (setting [11]), 300 nM; with SARS-CoV-2 variant Alpha [10] (Severe acute respiratory syndrome coronavirus 2, Calu-3, read-out: Antiviral Activity Against SARS-CoV-2 Variants in Calu3 EC50, Alpha), 300 nM. The EC90 was found to be 400 nM in [1] (setting [11]); 300 nM with SARS-CoV-2 variant Gamma [2] (setting [11]); 3600 nM with SARS-CoV-2 variant Delta (Severe acute respiratory syndrome coronavirus 2, Calu-3, read-out: Antiviral Activity Against SARS-CoV-2 Variants in Calu3 EC90, Delta); 4500 nM in [5] (Severe acute respiratory syndrome coronavirus 2, Calu-3, read-out: Antiviral Activity Against SARS-CoV-2 Variants in Calu3 EC90, Lineage A (Eng)); 1000 nM with SARS-CoV-2 variant Beta [6] (setting [11]); 100 nM in the test with SARS-CoV-2 variant Gamma [7] (Severe acute respiratory syndrome coronavirus 2, Calu-3, read-out: Antiviral Activity Against SARS-CoV-2 Variants in Calu3 EC90, Gamma). Further, the EC90 in test [8] (Severe acute respiratory syndrome coronavirus 2, Calu-3, read-out: Antiviral Activity Against SARS-CoV-2 Variants in Calu3 EC90, Lineage A (Wa)) stood at 400 nM; in the test on SARS-CoV-2 variant Alpha [9] (setting [11]), 1400 nM.
Turning to `CCC(CC)COC(=O)[C@H](C)N[P@](=O)(OC[C@H]1O[C@@](C#N)(c2ccc3c(N)ncnn23)[C@H](O)[C@@H]1O)Oc1ccccc1` [Remdesivir, reference compound], the EC50 in [1] (setting [12]) is 300 nM; in the test with SARS-CoV-2 variant Gamma [2] (setting [13]) it was 300 nM; in the test on SARS-CoV-2 variant Delta (Severe acute respiratory syndrome coronavirus 2, Calu-3, Delta, Calu3, read-out: Antiviral Activity Against SARS-CoV-2 Variants in Calu3 EC50, Delta), 300 nM; in test [4] (Severe acute respiratory syndrome coronavirus 2, Lineage A (Wa), Vero) it was 200 nM; in test [5] (Severe acute respiratory syndrome coronavirus 2, Calu-3, Lineage A (Eng), Calu3, read-out: Antiviral Activity Against SARS-CoV-2 Variants in Calu3 EC50, Lineage A (Eng)), 20 nM; in the test on SARS-CoV-2 variant Beta [6] (setting [14]), 1100 nM. The EC50 is 260 nM in the test on SARS-CoV-2 variant Gamma [7] (Severe acute respiratory syndrome coronavirus 2, Calu-3, Gamma, Calu3, read-out: Antiviral Activity Against SARS-CoV-2 Variants in Calu3 EC50, Gamma); 100 nM in test [8] (Severe acute respiratory syndrome coronavirus 2, Calu-3, Lineage A (Wa), Calu3, read-out: Antiviral Activity Against SARS-CoV-2 Variants in Calu3 EC50, Lineage A (Wa)); 400 nM with SARS-CoV-2 variant Alpha [9] (setting [15]); 300 nM in the test with SARS-CoV-2 variant Alpha [10] (Severe acute respiratory syndrome coronavirus 2, Calu-3, Alpha, Calu3, read-out: Antiviral Activity Against SARS-CoV-2 Variants in Calu3 EC50, Alpha). The EC90 in test [1] (setting [12]) turned out to be 2900 nM; in the test with SARS-CoV-2 variant Gamma [2] (setting [13]), 2100 nM; with SARS-CoV-2 variant Delta (Severe acute respiratory syndrome coronavirus 2, Calu-3, Delta, Calu3, read-out: Antiviral Activity Against SARS-CoV-2 Variants in Calu3 EC90, Delta), 2300 nM; in [5] (Severe acute respiratory syndrome coronavirus 2, Calu-3, Lineage A (Eng), Calu3, read-out: Antiviral Activity Against SARS-CoV-2 Variants in Calu3 EC90, Lineage A (Eng)), 300 nM; with SARS-CoV-2 variant Beta [6] (setting [14]), 2200 nM; with SARS-CoV-2 variant Gamma [7] (Severe acute respiratory syndrome coronavirus 2, Calu-3, Gamma, Calu3, read-out: Antiviral Activity Against SARS-CoV-2 Variants in Calu3 EC90, Gamma), 300 nM. Besides, the EC90 in test [8] (Severe acute respiratory syndrome coronavirus 2, Calu-3, Lineage A (Wa), Calu3, read-out: Antiviral Activity Against SARS-CoV-2 Variants in Calu3 EC90, Lineage A (Wa)) came out at 400 nM; with SARS-CoV-2 variant Alpha [9] (setting [15]), 1600 nM; with SARS-CoV-2 variant Alpha [10] (Severe acute respiratory syndrome coronavirus 2, Calu-3, Alpha, Calu3, read-out: Antiviral Activity Against SARS-CoV-2 Variants in Calu3 EC90, Alpha) it was 400 nM.
